row,Structure (SMILES),melting point
1,CC(=O)NC[C@H]1CN(c2ccc3c(c2)CCS(=O)(=O)CC3)C(=O)O1,142 to 144 °C
2,COc1cc2c(cc1OC)S(=O)CCC(C(=O)N1CCN(C(=O)c3cc(OC)c(OC)c(OC)c3)CC1)=C2 (configuration not stated),138 °C
3,CC(C)(C)NC(=O)c1nn(-c2ccc(C(F)(F)F)cc2)c2c1C1CCC2CC1,174 to 176 °C
4,O=C(C=P(c1ccccc1)(c1ccccc1)c1ccccc1)CCCCO,121 to 124 °C
5,Cc1cc(=O)c2[nH]nc(C)c2[nH]1,> 346 °C
6,O=c1[nH]c2cc([N+](=O)[O-])sc2[nH]c1=O,> 300 °C
7,CCCCCCN1CCC(C(=O)NCC)(c2ccccc2)CC1,92 to 94 °C
8,O=C(O)[C@H]1C=C[C@H](c2ccccc2)n2c(=O)n(CCS)c(=O)n21 (relative stereo),153 to 154 °C
9,N#Cc1cccc(C2=Nc3ccc(C#CC4=CC(=O)CCC4)cc3NC(=O)C2)c1,110 °C
10,O=C(O)[C@H]1C=C[C@@H](c2ccc([N+](=O)[O-])cc2)n2c(=O)n(CCCl)c(=O)n21 (relative stereo),192 to 194 °C
11,Cc1oncc1C(=O)N1CCC(C)CC1,44 to 45 °C
12,Cc1cccc2c1N(CC(=O)N1CC3CCC(CC3)C1)C(=O)C(NC(=O)Nc1cccc(CO)c1)N=C2c1ccccc1F (configuration not stated),188 to 202 °C
13,FC(F)(F)c1ccc2nc(N3CCN(c4ncccc4C(F)(F)F)CC3)[nH]c2c1,221 to 224 °C
14,NC1=NS(=O)N=C1NCCCOc1cccc2c(N3CCOCC3)nccc12 (configuration not stated),222 to 224 °C
15,CCC1(O)NC(=O)C=C1C (configuration not stated),182 to 186 °C
16,CCOc1cc(Cc2cnc(N)nc2N)cc2c1OC(C)(C)C=C2C#CC(C)O (configuration not stated),218 to 219 °C
17,[N-]=[N+]=NCC1=NN=C(c2ccc([N+](=O)[O-])cc2)c2cc3c(cc2C1)OCO3,198 to 200 °C
18,NC(=O)c1c(F)cccc1C(=O)O,129 to 132 °C
19,FC(F)(F)c1ccc(Nc2ccccc2C=C(Br)Br)cc1,74 to 75 °C
20,CC1(C)CC(CN2CCNC2=N[N+](=O)[O-])CO1 (configuration not stated),119 to 120 °C
21,O=C(O)c1ncn2c1[C@@H]1CCN1C(=O)c1c(Br)cccc1-2,178 to 180 °C

row,Structure (SMILES),melting point
1,ClCc1ncc(-c2ccccc2)cc1Cl,74 to 75 °C
2,ClCc1cccc(CCl)n1,74.5 to 75.5 °C
3,COc1cc(OC)cc(C(=O)P2(=O)Oc3ccccc3-c3ccccc32)c1 (configuration not stated),140 to 142 °C
4,O=C1CC2CSc3sccc3C2=NN1c1ccc(Cl)cc1 (configuration not stated),134 to 135 °C
5,CNC(=O)C1CN(CC(=O)Nc2c(Cl)cc(Cl)cc2Cl)CCN1 (configuration not stated),169 °C
6,C#CCON=Cc1c(C(=O)OC)[nH]c2c(C)ccc(C)c12,113 to 114 °C
7,CC(C)C1CC(O)OC(C(C)C2CC(=O)C3C4C(O)C(O)C5C(O)C(O)CCC5(C)C4CCC23C)C1 (configuration not stated),239 to 241 °C
8,O=c1[nH]sc2nc(-c3ccccc3)nc(CCc3ccccc3)c12,144 to 147 °C
9,CCOc1cc2nc(S(C)(=O)=O)[nH]c2cc1OCC,182 to 184 °C
10,CC#CNc1c([N+](=O)[O-])cc(C(F)(F)F)c(Cl)c1[N+](=O)[O-],86 to 87 °C
11,CC#CCN(C)c1ccc(OC23CC4CC(CC(C4)C2)C3)cc1,180 to 181 °C
12,O=C(O)[C@@H](CCN1C(=O)c2ccccc2C1=O)Oc1c(Br)cc(-c2c(Br)ccc3sc4ccccc4c23)cc1Br,130 to 132 °C
13,CC(C)(C)c1cc(C2=CCCCCC2)c(O)c(C(C)(C)C)c1,78 to 80 °C
14,N#CC(=C=Nc1nc2ccccc2[nH]1)C#N,340 to 345 °C
15,CN1CCN(C(=O)CCS)C(C(=O)O)C1 (configuration not stated),75 to 79 °C
16,CC1(C)OC(=O)C[C@H]2NC(=O)[C@H]21,180 to 182 °C
17,CC(CCCN(C)C)C1CC(=O)C2=C3CCC4CC(O)CCC4(C)C3CCC21C (configuration not stated),160 to 162 °C
18,O=C(N[C@H]1CC[C@H](CCN2CCN(c3nccc4c3OCC4)CC2)CC1)c1ccc(N2CCCCC2)cc1,182 °C
19,COc1ccc2c(c1)CCC1C2CCC2(C)C1CCC2N(C=O)CCCO (configuration not stated),159 to 161 °C
20,CN1CCC(C2(O)c3ccccc3Oc3ccc(C(F)(F)F)cc32)CC1 (configuration not stated),179 to 183 °C

# Second part, the compound after the results:
row,melting point,Structure (SMILES)
1,173 to 175 °C,CCCn1c(CCOC)nc2c(N)nc3cc(OC4CCN(C(=O)OC(C)(C)C)CC4)ccc3c21
2,> 240 °C,CCCc1ccc2c(=O)cc(C(=O)O)[nH]c2c1
3,50 to 54 °C,O=C1C(c2cccc(Br)c2)n2cncc2CN1Cc1ccncc1 (configuration not stated)
4,222 to 224 °C,CCOC(=O)c1cnc(-c2cc([N+](=O)[O-])ccc2OCC)[nH]c1=O
5,126 to 127 °C,O=C(NCCOc1ncc(C(F)(F)F)cc1Cl)c1cc([N+](=O)[O-])ccc1Cl
6,94 to 95 °C,COCCNC(=O)c1cccc(-c2cccc3cc(Cc4ccc(F)cc4F)sc23)c1
7,130 to 132 °C,COCCOc1ccc(C2=NCCNC2=O)cc1
8,86 to 93 °C,CC(C)(C)C(=O)Oc1ccc(-c2nnn(C(C(=O)NCC(=O)O)c3ccccc3)n2)cc1 (configuration not stated)
9,103 to 112 °C,COCCOc1cccc(-n2cc(-c3ccc(O)cc3)c3c(N)ncnc32)c1
10,176 to 178 °C,CC(C)(CO)CNc1cc(C(c2cc(F)ccc2F)S(=O)(=O)c2ccc(Cl)cc2)c(Cl)cn1 (configuration not stated)
11,174 to 175 °C,CCOC(=O)c1[nH]c(C)c(-c2ccc(F)cc2)c1C
12,65 to 66 °C,COc1cc2c(cc1O)CCN(Cc1ccc(OC)c(OC)c1OC)C2
13,155 to 160 °C,COc1cc(Nc2c(C#N)cnc3cc(-c4ccc(CN(CCO)CCO)o4)ccc23)c(Cl)cc1Cl
14,119 to 120 °C,CC#CCOc1ccc(S(=O)(=O)N2Cc3ccccc3N(C(=O)c3ccco3)CC2C(=O)OC)cc1 (configuration not stated)
15,75 to 77 °C,CCOC(=O)C(=CNc1ccn(Cc2ccco2)n1)C(=O)c1ccccc1
16,251 to 252 °C,O=C(Nc1cc(Cl)ccc1O)c1cc(Cl)cc(Cl)c1
17,132 to 133 °C,COc1cccc2c(=O)n(C(C)(C)C(=O)OCC(=O)c3ccccc3)c(=O)[nH]c12
18,67 to 68 °C,Clc1ccc(CC2(n3cncn3)CC2)cc1
19,172 °C,CCN(CC)CCOc1ccc(Nc2ncc3c(n2)N(C)C(=O)N(c2ccc(Cl)cc2Cl)C3)cc1

row,melting point,Structure (SMILES)
1,137 to 139 °C,CCOc1cc([C@@H](CCN(O)C(N)=O)N2Cc3cccc(NC(=O)C(C)C)c3C2=O)ccc1OC
2,220 to 222 °C,COc1cc(S(=O)(=O)c2ccncc2)ccc1NC(=O)C(C)(O)C(F)(F)F (configuration not stated)
3,219 to 220 °C,CC(C(N)=O)c1ccc(-c2cn3ccccc3n2)cc1 (configuration not stated)
4,103 to 104 °C,COC(=O)N(N=C(C)C)C(=O)c1ccc(Br)cc1
5,181 to 183 °C,COc1ccc(-n2nc(Sc3cccc4ccccc34)c(C)c(C#N)c2=O)cc1
6,115 to 117 °C,CSc1nc2ccc(Cl)cc2c(-c2ccccc2)c1N
7,147 to 151 °C,CC(NC(=O)OC(C)(C)C)C(=O)NC(C)C(=O)Nc1ccc2c(Cl)c(OCCBr)oc(=O)c2c1 (configuration not stated)
8,138 to 139 °C,O=C(O)CC1CCCCc2c1c1cc(F)ccc1n2Cc1ccc(Cl)cc1 (configuration not stated)
9,117 to 118 °C,COc1ccc(C2COc3ccc(-c4nnc(C)o4)cc32)cc1 (configuration not stated)
10,175 to 176 °C,CC(C)(C)c1ccc(/C=C/C(=O)Nc2ccc3c(c2)CCO3)cc1
11,192 to 195 °C,NNc1cc2c(nn1)CCN(C(=O)c1ccc(Br)cc1)C2
12,190 to 193 °C,COC(=O)NC1CCc2ccc(NC(=O)c3cccc(C)c3-c3ccc(C(F)(F)F)cc3)cc2CC1 (configuration not stated)
13,245 to 247 °C,COc1ccccc1-c1cnc(-c2ccccc2)[nH]c1=O
14,53 to 57 °C,COC(=O)CCCC#Cc1cc(Cl)ccc1NS(=O)(=O)c1ccc2c(c1)CCC(=O)N2
15,70 to 73 °C,CN1C(=O)C(c2ccc(OC(F)F)cc2)(c2ccc(F)c(CF)c2)N=C1N (configuration not stated)
16,140 to 142 °C,CCc1cc(NC(=O)c2nnnn2Cc2ccc(OC)cc2)c(O)c(C(C)=O)c1
17,123 to 124 °C,CCCCCCC(=O)Nc1cccc2c1C1(COc3cc4c(cc31)OCCO4)C(=O)N2C (configuration not stated)
18,53 to 54 °C,CC(C)c1ccc2c(c1)C(=O)c1ccccc1C2=O
19,261 to 265 °C,NC(=O)C1CCN(Cc2cnc3cc(NC(=O)c4ccc(-c5ccc(F)cc5)cc4)ccc3c2)CC1

row,melting point,Structure (SMILES)
1,222 to 224 °C,CCC(=O)Nc1cccc2c1C(=O)N(C1(C)CCC(=O)NC1=O)C2=O (configuration not stated)
2,184 to 187 °C,Cc1nc(-n2cc(-c3ccccn3)nn2)sc1C(=O)NCc1ccccc1
3,140 °C,CCOC(=O)c1ncn(-c2cc(C(F)(F)F)ccc2[N+](=O)[O-])c1C
4,172 °C,CC(C)(OCc1cc2nc(Cl)ccc2n1S(=O)(=O)c1ccc2c(c1)OCO2)C(=O)O
5,228 to 231 °C,CNC(=O)C(Cc1ccc(OC)cc1)NC(=O)C(CC(C)C)C(S)CC(=O)NCC(=O)O (configuration not stated)
6,119 to 120 °C,CCOC(=O)c1sc(Cl)nc1-c1ccc(Cl)cc1
7,140 to 142 °C,COc1ccc(COc2c(OC)ccc3c2CC(C(=O)O)N(C(=O)C(c2ccccc2)c2ccccc2)C3)cc1C (racemic)
8,190 to 193 °C,COc1ccc(Cn2cnc(N)c3nc(C(C)C)nc2-3)cc1OC1CCCC1
9,152 to 160 °C,CCOC(=O)CNC(=O)c1ccc(CCC2CNc3nc(N)nc(O)c3C2)s1 (configuration not stated)
10,215 to 216 °C,O=c1c2ccc(OCCCN3CCN(Cc4ccc(Cl)cc4)CC3)cc2oc2nn[nH]c12
11,118 to 120 °C,COc1ccc2c(c1)CCC1CCN(C)C(=O)C(CC(C)NC(C)C)=C21 (configuration not stated)
12,230 to 232 °C,CC(C)(C)c1cc(NC(=O)Nc2csc(-c3cccnc3)n2)no1
13,61 to 64 °C,CCOC(=O)/C=C/c1ccc(OCCOC)cc1Oc1ccc([N+](=O)[O-])cc1
14,202 to 204 °C,CCOC(=O)c1cc(-n2c(=O)[nH]c(C)c(C)c2=O)ccc1Cl
15,172 to 174 °C,COc1ccc([C@H](C)NC(=O)COc2cc(C(F)(F)F)c3c(-c4ccccc4)nn(C)c3n2)cc1
16,123 to 127 °C,CCCCCCCCCCCC(=O)N[C@@H](CC(C)C)C(=O)N[C@@H](C(C)C)[C@@H](O)c1c(-c2ccccc2)c1=O
17,168 °C,COc1ccc(-c2nc(-c3ccc(Cl)cc3)ncc2C(=O)N2CCOCC2)cc1OC
18,140 °C,CN1CCN(C(=O)COc2cc(-c3ccccc3)nc3ccccc23)CC1=O

# Source: a melting point compilation (Tetko et al.; mined from patent text by program, amines drawn as free bases though some values may be those of a salt)
